Patent publication US4728726A, “GRF analogs IIIb” (The Salk Institute for Biological Studies, priority 1986, dated 1988)
Square brackets hold non-standard residues; d marks the D form. Ends that are not written are not given here. Peptide text beside a SMILES is read from it. Nle = CCCC[C@H](N)C(=O)O

System: cells of rat pituitary glands
Assay: in vitro assay of growth hormone release from cultured rat pituitary cells (ir GH by radioimmunoassay)
Type: cell-based
Details: potency for GH release relative to standard hGRF(1-40)-OH = 100%; equimolar concentrations; incubation 3 to 4 hours
Procedure: To determine the relative effectiveness of certain representative synthetic peptides to promote the release of growth hormone, in vitro assays are carried out using synthetic hpGRF(1-40)-OH as a standard in side-by-side comparison with equimolar concentrations of the representative analogs which have been synthesized. Cultures are used which include cells of rat pituitary glands removed some three to five days previously. Such cultures are considered optimal for the secretion of growth hormone and are used for the comparative testing, in the general manner described in Vale et al. Endocrinology, 91, 562-572 (1972) and as more particularly described in Vale et al. Endocrinology, 112, 1553-1555 (1983). Incubation with the substance to be tested is carried out for 3 to 4 hours, and aliquots of the culture medium are removed and processed to measure their contents in immunoreactive GH(ir GH) by a well-characterized radioimmunoassay.

## CCCC[C@H](NC(=O)[C@@H](NC(=O)[C@H](CC(=O)O)NC(=O)[C@H](CCC(N)=O)NC(=O)[C@H](CC(C)C)NC(=O)[C@H](CC(C)C)NC(=O)[C@H](CCCCN)NC(=O)[C@H](CCCNC(=N)N)NC(=O)[C@H](C)NC(=O)[C@H](CO)NC(=O)[C@H](CC(C)C)NC(=O)[C@H](CCC(N)=O)NC(=O)CNC(=O)[C@H](CC(C)C)NC(=O)[C@@H](NC(=O)[C@H](CCCCN)NC(=O)[C@H](CCCNC(=N)N)NC(=O)[C@H](Cc1ccc(O)cc1)NC(=O)[C@H](CO)NC(=O)[C@H](CC(N)=O)NC(=O)[C@@H](NC(=O)[C@H](Cc1ccccc1)NC(=O)[C@@H](NC(=O)[C@H](C)NC(=O)[C@H](CC(=O)O)NC(=O)[C@@H](C)NC(=O)[C@@H](N)Cc1ccc(O)cc1)[C@@H](C)CC)[C@@H](C)O)C(C)C)[C@@H](C)CC)C(=O)N[C@@H](CC(N)=O)C(=O)N[C@@H](CCCNC(=N)N)C(=O)NCC [[D-Ala^2, Nle^27, Asn^28]-hGRF(1-29)-NHEt] (H-Y[dA]DAIFTNSYRKVLGQLSARKLLQDI[Nle]NR-NHEt)
  Comparison %: 1714%

## hGRF(1-40)-OH (YADAIFTNSYRKVLGQLSARKLLQDIMSRQQGESNQERGA-OH; UniProt P01286 32-71, looked up, fragment) [synthetic human pancreatic (tumor) GH releasing factor (1-40) free acid, used as standard for this test, reference compound]
  Comparison %: 100%

## CCCC[C@H](NC(=O)[C@@H](NC(=O)[C@H](CC(=O)O)NC(=O)[C@H](CCC(N)=O)NC(=O)[C@H](CC(C)C)NC(=O)[C@H](CC(C)C)NC(=O)[C@H](CCCCN)NC(=O)[C@H](CCCNC(=N)N)NC(=O)[C@H](C)NC(=O)[C@H](CO)NC(=O)[C@H](CC(C)C)NC(=O)[C@H](CCC(N)=O)NC(=O)CNC(=O)[C@H](CC(C)C)NC(=O)[C@@H](NC(=O)[C@H](CCCCN)NC(=O)[C@H](CCCNC(=N)N)NC(=O)[C@H](Cc1ccc(O)cc1)NC(=O)[C@H](CO)NC(=O)[C@H](CC(N)=O)NC(=O)[C@@H](NC(=O)[C@H](Cc1ccccc1)NC(=O)[C@@H](NC(=O)[C@H](C)NC(=O)[C@H](CC(=O)O)NC(=O)[C@H](C)NC(=O)[C@@H](N)Cc1ccc(O)cc1)[C@@H](C)CC)[C@@H](C)O)C(C)C)[C@@H](C)CC)C(=O)N[C@@H](CO)C(=O)N[C@@H](CCCNC(=N)N)C(N)=O [[Nle^27]-hGRF(1-29)-NH2]
  Comparison %: 238%

## CCCC[C@H](NC(=O)[C@@H](NC(=O)[C@H](CCC(=O)O)NC(=O)[C@H](Cc1c[nH]cn1)NC(=O)[C@H](CC(C)C)NC(=O)[C@H](CC(C)C)NC(=O)[C@H](CCCCN)NC(=O)[C@H](CCCNC(=N)N)NC(=O)[C@H](C)NC(=O)[C@H](Cc1ccc(O)cc1)NC(=O)[C@H](CC(C)C)NC(=O)[C@H](CCC(N)=O)NC(=O)CNC(=O)[C@H](CC(C)C)NC(=O)[C@@H](NC(=O)[C@H](CCCNC(=N)N)NC(=O)[C@H](CCCNC(=N)N)NC(=O)[C@H](Cc1ccc(O)cc1)NC(=O)[C@H](CO)NC(=O)[C@H](CO)NC(=O)[C@@H](NC(=O)[C@H](Cc1ccccc1)NC(=O)[C@@H](NC(=O)[C@H](C)NC(=O)[C@H](CC(=O)O)NC(=O)[C@H](C)NC(=O)[C@@H](N)Cc1c[nH]cn1)[C@@H](C)CC)[C@@H](C)O)[C@@H](C)CC)[C@@H](C)CC)C(=O)N[C@H](CC(N)=O)C(=O)N[C@@H](CCCNC(=N)N)C(N)=O [[Nle^27, D-Asn^28]-rGRF(1-29)-NH2] (H-HADAIFTSSYRRILGQLYARKLLHEI[Nle][dN]R-NH2)
  Comparison %: 321%

## CCCC[C@H](NC(=O)[C@@H](NC(=O)[C@H](CC(=O)O)NC(=O)[C@H](CCC(N)=O)NC(=O)[C@H](CC(C)C)NC(=O)[C@H](CC(C)C)NC(=O)[C@H](CCCCN)NC(=O)[C@H](CCCNC(=N)N)NC(=O)[C@H](C)NC(=O)[C@H](CO)NC(=O)[C@H](CC(C)C)NC(=O)[C@H](CCC(N)=O)NC(=O)CNC(=O)[C@H](CC(C)C)NC(=O)[C@@H](NC(=O)[C@H](CCCCN)NC(=O)[C@H](CCCNC(=N)N)NC(=O)[C@H](Cc1ccc(O)cc1)NC(=O)[C@H](CO)NC(=O)[C@H](CC(N)=O)NC(=O)[C@@H](NC(=O)[C@H](Cc1ccccc1)NC(=O)[C@@H](NC(=O)[C@H](C)NC(=O)[C@H](CC(=O)O)NC(=O)[C@@H](C)NC(=O)[C@@H](N)Cc1ccc(O)cc1)[C@@H](C)CC)[C@@H](C)O)C(C)C)[C@@H](C)CC)C(=O)N[C@@H](CO)C(=O)N[C@@H](CCCNC(=N)N)C(N)=O [[D-Ala^2, Nle^27]-hGRF(1-29)-NH2]
  Comparison %: 429%
